pIC50: −log10 of the molar value.
Each molecule was assayed on C3H10T1/2 cells (assay: C3H assay: differentiation of C3H10T1/2 cells by mSHH, measurement of alkaline phosphatase). Details: Mus musculus, C3H 10T1/2; C3H10T1/2 cells stimulated with mSHH for 72 hours; alkaline phosphatase activity; read-out: IC50 Ranges.
Assay type: cell-based, mouse

Row | pIC50 | Structure (SMILES)
1 | 7.00 to 8.00 | C[C@H]1CC(c2c[nH]c3ncccc23)CCN1S(=O)(=O)C1CN(C(=O)OC(C)(C)C)C1 (mixture of isomers) [Compound 45, tert-butyl 3-[(2R)-2-methyl-4-(1H-pyrrolo[2,3-b]pyridin-3-yl)piperidin-1-yl]sulfonylaze-tidine-1-carboxylate]
2 | 7.00 to 8.00 | CN(C)CC(C)(C)OC(=O)N1CCC(S(=O)(=O)N2CCC(c3c[nH]c4ncccc34)CC2)C1 (racemic) [Compound 147, [1-(dimethylamino)-2-methylpropan-2-yl]3-[4-(1H-pyrrolo[2,3-b]pyridin-3-yl)piperidin-1-yl]sulfonylpyrr olidine-1-carboxylate]
3 | 7.00 to 8.00 | CC(C)C(CO)NC(=O)N1CCC(S(=O)(=O)N2CCC(c3c[nH]c4ncccc34)CC2)C1 (racemic) [Compound 149, N-(1-hydroxy-3-methylbutan-2-yl)-3-[4-(1H-pyrrolo[2,3-b]pyridin-3-yl)piperidin-1-yl]sulfonylpyrr olidine-1-carboxamide]
4 | 7.00 to 8.00 | CC(C)(C)OC(=O)N1CCC(S(=O)(=O)N2CCC(c3c[nH]c4ncccc34)CC2)C1 (racemic) [Compound 150, tert-butyl 3-[4-(1H-pyrrolo[2,3-b]pyridin-3-yl)piperidin-1-yl]sulfonylpyrr olidine-1-carboxylate]
5 | 6.00 to 7.00 | O=S(=O)(C1CCN(c2ccccn2)C1)N1CCC(c2c[nH]c3ncccc23)CC1 (racemic) [Compound 244, 3-[1-(1-pyridin-2-ylpyrrolidin-3-yl)sulfonylpiper-idin-4-yl]-1H-pyrrolo[2,3-b]pyridine]
6 | 5.00 to 6.00 | O=S(=O)(C1CCNC1)N1CCC(c2c[nH]c3ncccc23)CC1 (racemic) [Compound 249, 3-[1-(pyrrolidin-3-yl)sulfonylpiper-idin-4-yl]-1H-pyrrolo[2,3-b]pyridine]
7 | 6.00 to 7.00 | CC(C)(C)OC(=O)N1CCC(S(=O)(=O)N2CCC(c3ccncc3)CC2)C1 (racemic) [Compound 269, tert-butyl 3-(4-pyridin-4-ylpiperidin-1-yl)sulfonylpyrrolidine-1-carboxylate]
8 | 6.00 to 7.00 | CN(C(=O)N1CCC(S(=O)(=O)N2CCC(c3ccncc3)CC2)C1)C(C)(C)C (racemic) [Compound 271, N-tert-butyl-N-methyl-3-(4-pyridin-4-ylpiperidin-1-yl)sulfonylpyrr olidine-1-carboxamide]
9 | 6.00 to 7.00 | CC(C)[C@H](CO)NC(=O)N1CC(S(=O)(=O)N2CCC(c3ccc(F)cc3)CC2)C1 (racemic) [Compound 344, 3-[4-(4-fluorophenyl)piperidin-1-yl]sulfonyl-N-[1-hydroxy-3-methylbutan-2-yl] azetidine-1-carboxamide]
10 | 6.00 to 7.00 | CC(C)C(CO)NC(=O)N1CC(S(=O)(=O)N2CCC(c3ccc(C#N)cc3)CC2)C1 (racemic) [Compound 348, 3-[4-(4-cyanophenyl)piperidin-1-yl]sulfonyl-N-[1-hydroxy-3-methylbutan-2-yl]azetidine-1-carboxamide]
11 | 7.00 to 8.00 | COc1ccccc1OC(=O)N1CC(S(=O)(=O)N2CCC(c3ccncc3)CC2)C1 [Compound 27, (2-methoxyphenyl) 3-(4-pyridin-4-ylpiperidin-1-yl)sulfonylaze-tidine-1-carboxylate]
12 | 6.00 to 7.00 | COC1CCC(OC(=O)N2CC(S(=O)(=O)N3CCC(c4ccncc4)CC3)C2)CC1 (stereo not drawn) [Compound 28, (4-methoxycyclo-hexyl) 3-(4-pyridin-4-9-ylpiperidin-1-yl)sulfonylaze-tidine-1-carboxylate]

Second part, the molecule before the results:

Row | Structure (SMILES) | pIC50
13 | CC(C)(C)OC(=O)N1CC(S(=O)(=O)N2CCC(c3c[nH]c4ncc(F)cc34)CC2)C1 [Compound 1, tert-butyl 3[4-(5-fluoro-1H-pyrrolo[2,3-b]pyridin-3-yl)piperidin-1-yl]sulfonylaze-tidine-1-carboxylate] | 6.00 to 7.00
14 | Cc1cnc2[nH]cc(C3CCN(S(=O)(=O)C4CN(C(=O)OC(C)(C)C)C4)CC3)c2c1 [Compound 2, tert-butyl 3-[4-(5-methyl-1H-pyrrolo[2,3-b]pyridin-3-yl)piperidin-1-yl] sulfonylaze-tidine-1-carboxylate] | 5.00 to 6.00
15 | CC(C)(C)OC(=O)N1CC(S(=O)(=O)N2CCC(c3cncn3Cc3ccccc3)CC2)C1 [Compound 3, tert-butyl 3-[4-(3-benzylimidazol-4-yl)piperidin-1-yl]sulfonylaze-tidine-1-carboxylate] | 6.00 to 7.00
16 | CC(C)(C)OC(=O)N1CCn2c(C3CCN(S(=O)(=O)C4CN(C(=O)OC(C)(C)C)C4)CC3)cnc2C1 [Compound 4, tert-butyl 3-[1-[1-[(2-methylpropan-2-yl)oxycarbonyl]azetidin-3-yl]sulfonylpiper-idin-4-yl]-6,8-dihydro-5H-imidazo[1,2-a]pyrazine-7-carboxylate] | 5.00 to 6.00
17 | CC(C)(C)OC(=O)N1CC(S(=O)(=O)N2CCC(c3cnc4n3CCC4)CC2)C1 [Compound 5, tert-butyl 3-[4-(6,7-dihydro-5H-pyrrolo[1,2-a]imidazol-3-yl)piperidin-1-yl]sulfonylaze-tidine-1-carboxylate] | 5.00 to 6.00
18 | COc1ccc(C2CCN(S(=O)(=O)C3CN(C(=O)OC(C)(C)C)C3)CC2)cc1 [Compound 6, tert-butyl 3-[4-(4-methoxyphenyl)piperidin-1-yl]sulfonylaze-tidine-1-carboxylate] | 6.00 to 7.00
19 | CC(C)(C)OC(=O)N1CCC(S(=O)(=O)N2CCC(c3ccnc4[nH]ccc34)CC2)CC1 [Compound 7, tert-butyl 4-[4-(1H-pyrrolo[2,3-b]pyridin-4-yl)piperidin-1-yl]sulfonylpiper-idine-1-carboxylate] | 6.00 to 7.00
20 | Cc1ccc(S(=O)(=O)n2ccc3c(C4CCN(S(=O)(=O)C5CCN(C(=O)OC(C)(C)C)CC5)CC4)ccnc32)cc1 [Compound 8, tert-butyl 4-[4-[1-(4-methylphenyl)-sulfonylpyrrolo[2,3-b]pyridin-4-yl]piperidin-1-yl]sulfonylpiper-idine-1-carboxylate] | 7.00 to 8.00
21 | Cc1ccc(C2CCN(S(=O)(=O)C3CCN(C(=O)OC(C)(C)C)CC3)CC2)c(C)c1 [Compound 9, tert-butyl 4-[4-(2,4-dimethylphenyl)piperidin-1-yl]sulfonylpiper-idine-1-carboxylate] | 5.00 to 6.00
22 | CC(C)(C)OC(=O)N1CCC(S(=O)(=O)N2CCC(c3ncnc4[nH]ccc34)CC2)CC1 [Compound 10, tert-butyl 4-[4-(7H-pyrrolo[2,3-d]pyrimidin-4-yl)piperidin-1-yl]sulfonylpiper-idine-1-carboxylate] | 5.00 to 6.00
23 | CC(C)(C)OC(=O)N1CCC(S(=O)(=O)N2CCC(c3ccnc4ccccc34)CC2)CC1 [Compound 11, tert-butyl 4-(4-quinolin-4-ylpiperidin-1-yl)sulfonylpiper-idine-1-carboxylate] | 6.00 to 7.00
24 | Cc1ccc(S(=O)(=O)n2ccc3c(C4CCN(S(=O)(=O)C5CCN(C(=O)OC(C)(C)C)CC5)CC4)ncnc32)cc1 [Compound 12, tert-butyl 4-[4-[7-(4-methylphenyl)-sulfonylpyrrolo[2,3-d]pyrimidin-4-yl]piperidin-1-yl]sulfonylpiper-idine-1-carboxylate] | 6.00 to 7.00
25 | COc1ccc(C2CCN(S(=O)(=O)C3CCN(C(=O)OC(C)(C)C)CC3)CC2)cc1 [Compound 13, tert-butyl 4-[4-(4-methoxyphenyl)piperidin-1-yl]sulfonylpiper-idine-1-carboxylate] | 6.00 to 7.00
26 | CC(C)(C)OC(=O)N1CCC(S(=O)(=O)N2CCC(c3ccccc3)CC2)CC1 [Compound 14, tert-butyl 4-(4-phenylpiperidin-1-yl)sulfonylpiper-idine-1-carboxylate] | 6.00 to 7.00
27 | COC(=O)c1cnc2[nH]cc(C3CCN(S(=O)(=O)C4CN(C(=O)OC(C)(C)C)C4)CC3)c2c1 [Compound 15, methyl 3-[1-[1-[(2-methylpropan-2-yl)oxycarbonyl]azetidin-3-yl]sulfonylpiper-idin-4-yl]-1H-pyrrolo[2,3-b]pyridine-5-carboxylate] | 5.00 to 6.00
28 | CC(C)(C)OC(=O)N1CC(S(=O)(=O)N2CCC(c3csc4cccnc34)CC2)C1 [Compound 17, tert-butyl 3-(4-thieno[3,2-b]pyridin-3-ylpiperidin-1-yl)sulfonylaze-tidine-1-carboxylate] | 7.00 to 8.00
29 | CC(C)(C)OC(=O)N1CCC(S(=O)(=O)N2CCC(c3csc4cccnc34)CC2)CC1 [Compound 18, tert-butyl 4-(4-thieno[3,2-b]pyridin-3-ylpiperidin-1-yl)sulfonylpiper-idine-1-carboxylate] | 7.00 to 8.00
30 | CC(C)(C)OC(=O)N1CCC(S(=O)(=O)N2CCC(c3c[nH]c4ncccc34)CC2)CC1 [Compound 19, tert-butyl 4-[4-(1H-pyrrolo[2,3-b]pyridin-3-yl)piperidin-1-yl]sulfonylpiper-idine-1-carboxylate] | 7.00 to 8.00
31 | CC(C)(C)OC(=O)N1CCC(S(=O)(=O)N2CCC(C3CCOCC3)CC2)CC1 [Compound 20, tert-butyl 4-[4-(oxan-4-yl)piperidin-1-yl]sulfonylpiper-idine-1-carboxylate] | 5.00 to 6.00
32 | O=C(Nc1ccccc1)N1CCC(S(=O)(=O)N2CCC(c3ccncc3)CC2)CC1 [Compound 21, N-phenyl-4-(4-pyridin-4-ylpiperidin-1-yl)sulfonylpiper-idine-1-carboxamide] | 5.00 to 6.00
33 | CC(C)(C)OC(=O)N1CC(S(=O)(=O)N2CCC(c3ccncc3)CC2)C1 [Compound 22, tert-butyl 3-(4-pyridin-4-ylpiperidin-1-yl)sulfonylaze-tidine-1-carboxylate] | 6.00 to 7.00
34 | CC(C)(C)OC(=O)N1CCC(S(=O)(=O)N2CCC(c3ccncc3)CC2)CC1 [Compound 23, tert-butyl 4-(4-pyridin-4-ylpiperidin-1-yl)sulfonylpiper-idine-1-carboxylate] | 6.00 to 7.00
35 | CC(C)C(CO)NC(=O)N1CC(S(=O)(=O)N2CCC(c3ccncc3)CC2)C1 (stereo not drawn) [Compound 24, 3-(4-pyridin-4-ylpiperidin-1-yl)sulfonyl-N-[1-hydroxy-3-methylbutan-2-yl]azetidine-1-carboxamide] | 6.00 to 7.00
36 | Cc1noc(C)c1NC(=O)N1CC(S(=O)(=O)N2CCC(c3cccnn3)CC2)C1 [Compound 25, N-(3,5-dimethyl-1,2-oxazol-4-yl)-3-(4-pyridazin-3-ylpiperidin-1-yl)sulfonylaze-tidine-1-carboxamide] | 5.00 to 6.00
